Experimental data published in the NIST ThermoML archive (doi:10.1007/s10765-013-1526-8).
Numbers after ± are expanded uncertainties.

Tests used:
[1] = xn = mol fraction of the nth substance listed; details: 101 kPa, Liquid; for speed of sound: Sing-around technique in a fixed-path interferometer
[2] = refractive index (Na D-line) (dimensionless); xn = mol fraction of the nth substance listed; details: 101 kPa, Liquid
[3] = 101 kPa, Liquid; for speed of sound: Sing-around technique in a fixed-path interferometer
[4] = refractive index (Na D-line) (dimensionless); details: 101.33 kPa, Liquid

CCCCC(CC)CO (centres undefined) [2-ethyl-1-hexanol] + Brc1ccccc1
x2 = 0
Details	mass density, [1] [kg/m3]	refractive index, [2]	speed of sound, [1] [m/s]	viscosity, [1] [mPa·s]
298.15 K	829.07 ± 0.82	1.4287 ± 0.0019	1319 ± 10	8.418 ± 0.65
303.15 K	825.39 ± 0.83	1.4266 ± 0.0019	1301 ± 10	7.144 ± 0.57
308.15 K	821.68 ± 0.84	1.4245 ± 0.0019	1283 ± 10	6.09 ± 0.5

Clc1ccccc1 [chlorobenzene] + CCCCC(CC)CO
x1 = 1
Details	mass density, [1] [kg/m3]	refractive index, [2]	speed of sound, [1] [m/s]	viscosity, [1] [mPa·s]
298.15 K	1101.03 ± 1.1	1.524 ± 0.002	1268 ± 10	0.767 ± 0.079
303.15 K	1095.52 ± 1.1	1.521 ± 0.002	1249 ± 10	0.716 ± 0.074
308.15 K	1090.2 ± 1.1	1.518 ± 0.002	1231 ± 10	0.66 ± 0.069

Clc1ccccc1 [chlorobenzene]
Details	mass density, [3] [kg/m3]	refractive index, [4]	speed of sound, [3] [m/s]	viscosity, [3] [mPa·s]
298.15 K	1101.03 ± 1.1	1.524 ± 0.002	1268 ± 10	0.767 ± 0.079
303.15 K	1095.52 ± 1.1	1.521 ± 0.002	1249 ± 10	0.716 ± 0.074
308.15 K	1090.2 ± 1.1	1.518 ± 0.002	1231 ± 10	0.66 ± 0.069

c1ccccc1 [benzene] + CCCCC(CC)CO
x1 = 1
Details	mass density, [1] [kg/m3]	refractive index, [2]	speed of sound, [1] [m/s]	viscosity, [1] [mPa·s]
298.15 K	873.66 ± 0.66	1.4969 ± 0.0019	1299 ± 10	0.603 ± 0.065
303.15 K	868.29 ± 0.68	1.4949 ± 0.0019	1276 ± 10	0.557 ± 0.061
308.15 K	862.92 ± 0.69	1.4929 ± 0.0019	1253 ± 10	0.533 ± 0.059

c1ccccc1 [benzene]
Details	mass density, [3] [kg/m3]	refractive index, [4]	speed of sound, [3] [m/s]	viscosity, [3] [mPa·s]
298.15 K	873.66 ± 0.66	1.4969 ± 0.0019	1299 ± 10	0.603 ± 0.065
303.15 K	868.29 ± 0.68	1.4949 ± 0.0019	1276 ± 10	0.557 ± 0.061
308.15 K	862.92 ± 0.69	1.4929 ± 0.0019	1253 ± 10	0.533 ± 0.059

Brc1ccccc1 [bromobenzene]
Details	mass density, [3] [kg/m3]	refractive index, [4]	speed of sound, [3] [m/s]	viscosity, [3] [mPa·s]
298.15 K	1488.12 ± 2.2	1.557 ± 0.0019	1153 ± 10	1.065 ± 0.1
303.15 K	1481.4 ± 2.2	1.555 ± 0.0019	1138 ± 10	1.005 ± 0.099
308.15 K	1474.58 ± 2.2	1.553 ± 0.0019	1122 ± 10	0.972 ± 0.096

CCCCC(CC)CO (centres undefined) [2-ethyl-1-hexanol]
Details	mass density, [3] [kg/m3]	refractive index, [4]	speed of sound, [3] [m/s]	viscosity, [3] [mPa·s]
298.15 K	829.07 ± 0.82	1.4287 ± 0.0019	1319 ± 10	8.418 ± 0.65
303.15 K	825.39 ± 0.83	1.4266 ± 0.0019	1301 ± 10	7.144 ± 0.57
308.15 K	821.68 ± 0.84	1.4245 ± 0.0019	1283 ± 10	6.09 ± 0.5
